According to ChEMBL document CHEMBL1240440, “A bioactive labdane diterpenoid from Curcuma amada and its semisynthetic analogues as antitubercular agents” (2010):
Values after ≈ are worked out from the molar mass of the structure shown.

test system: Mycobacterium tuberculosis; test: Antitubercular activity against Mycobacterium tuberculosis H37Rv ATCC 27294 after 24 hrs by BACTEC radiometric susceptibility assay; type: functional; details: H37Rv ATCC 27294, 24 h

Row | SMILES | MIC [µg/mL]
1 | CO[C@H]1/C=C/O[C@@]2(C)Oc3c(C)c(O)c4c(O)c(c(/C=N/N5CCN(C)CC5)c(O)c4c3C2=O)NC(=O)/C(C)=C\C=C\[C@H](C)[C@H](O)[C@@H](C)[C@@H](O)[C@@H](C)[C@H](OC(C)=O)[C@@H]1C [RIFAMPIN] | 2 (≈ 2.43 µM)
2 | C=C1CC[C@H]2C(C)(C)CCC[C@]2(C)[C@H]1C/C=C(\CCOC(C)=O)COC(C)=O | > 1000
3 | C=C1CC[C@H]2C(C)(C)CCC[C@]2(C)[C@H]1C/C=C(/C=N/O)C/C=N/O | 500 (≈ 1500 µM)
4 | C=C1CC[C@H]2C(C)(C)CCC[C@]2(C)[C@H]1C/C=C(/CO)CCO | 250 (≈ 816 µM)
5 | CN[C@@H]1[C@H](O[C@H]2[C@H](O[C@H]3[C@H](O)[C@@H](O)[C@H](N=C(N)N)[C@@H](O)[C@@H]3N=C(N)N)O[C@@H](C)[C@]2(O)C=O)O[C@@H](CO)[C@H](O)[C@H]1O [STREPTOMYCIN] | 2 (≈ 3.44 µM)
6 | C=C1CC[C@H]2C(C)(C)CCC[C@]2(C)[C@H]1C/C=C(/C=O)CC=O | 500 (≈ 1650 µM)
